Assay results taken from patent US9155714B2, “Compositions comprising an aromatic alcohol and a TRPV-1 antagonist, and uses thereof” (JOHNSON & JOHNSON CONSUMER INC., priority 2013, dated 2015).
Several values for one entry are separate records, joined by “and”; a condition that tells them apart may be missing. Identical values can stand only once. Each block holds one compound with its values, some of them ahead of it.

Experiments:
Type in all cases: cell-based
[1] = molecular target: T1, human vanilloid receptor-1 (TRPV-1) (Homo sapiens, UniProt Q8NER1); assay: Calcium Flux Test, inhibition of phenoxyethanol-induced calcium flux
T1 construct: host or cells: HEK293
T1 sequence (Q8NER1 whole entry): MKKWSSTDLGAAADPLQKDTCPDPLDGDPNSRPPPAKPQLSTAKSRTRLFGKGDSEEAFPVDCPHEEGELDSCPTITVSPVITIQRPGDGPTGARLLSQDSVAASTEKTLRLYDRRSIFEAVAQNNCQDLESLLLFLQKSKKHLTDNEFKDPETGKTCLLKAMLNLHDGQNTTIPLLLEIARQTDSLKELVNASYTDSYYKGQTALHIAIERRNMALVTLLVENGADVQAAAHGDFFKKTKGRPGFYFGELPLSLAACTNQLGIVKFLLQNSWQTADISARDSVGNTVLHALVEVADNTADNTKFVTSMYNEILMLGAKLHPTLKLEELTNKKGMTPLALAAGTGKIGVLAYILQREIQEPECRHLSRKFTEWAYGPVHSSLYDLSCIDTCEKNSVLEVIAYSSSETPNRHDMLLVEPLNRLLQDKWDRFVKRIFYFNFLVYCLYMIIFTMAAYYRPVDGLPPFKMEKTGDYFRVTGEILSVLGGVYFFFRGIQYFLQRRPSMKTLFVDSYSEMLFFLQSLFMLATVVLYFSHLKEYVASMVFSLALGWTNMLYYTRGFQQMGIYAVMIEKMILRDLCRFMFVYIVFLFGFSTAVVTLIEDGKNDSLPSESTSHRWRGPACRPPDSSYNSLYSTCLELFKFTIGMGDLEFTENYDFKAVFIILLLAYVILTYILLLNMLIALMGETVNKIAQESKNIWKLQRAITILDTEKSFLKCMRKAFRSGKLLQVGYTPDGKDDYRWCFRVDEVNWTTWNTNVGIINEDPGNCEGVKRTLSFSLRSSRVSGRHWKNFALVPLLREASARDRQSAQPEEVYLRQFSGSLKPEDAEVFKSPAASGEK
Protocol: (§1) The Calcium Flux Test is performed in the following manner: Recombinant HEK293 cells expressing human vanilloid receptor-1 (TRPV-1; accession number AF196175, EMD Millipore, Billerica, Mass.) are grown in D-MEM/F-12 media (Life Technologies, Grand Island, N.Y.) supplemented with 10% fetal bovine serum, 1% non essential amino acids and 400 μg/mL Geneticin (Gibco, Life Technologies). Cells are plated at a concentration of 15,000 cells per well on poly-D-lysine-coated 384 well plates and incubated overnight at 5% CO2 and 37° C. After incubation, culture media is removed from the wells and replaced with 50 μL per well of Fluo-8 No Wash dye solution (#36315, AAT Bioquest, Sunnyvale, Calif.). The Fluo-8 dye solution is prepared by mixing 20 uL of Fluo-8 NW with 30 mL of 0.33× Pluronic® F127 Plus (BASF of Ludwigshafen, Germany) in assay buffer (1×HBSS+2% of HEPES). Fluo-8 dye is incubated for 30 minutes at room temperature. Intracellular calcium (Ca^2+) flux is monitored upon exposure to aromatic alcohol in DMSO vehicle by measuring fluorescence intensity at Ex/Em 490/525 on a Functional Drug Screening System (FDSS; Hamamatsu, […]). Measurements are taken every second for a period of 4 minutes. […] Statistical differences are obtained using One Way ANOVA with Tukey Post-hoc test; statistical significance is defined as P≦0.05.
(§2) The Maximum RFU obtained with a given concentration of aromatic alcohol is compared with the Maximum RFU obtained using the same concentration of aromatic alcohol but pretreated with the TRPV-1 antagonist for 5 minutes after dye incubation. Percent inhibition achieved with the TRPV-1 antagonist is calculated as: 100*((Maximum RFU of aromatic alcohol−Maximum RFU of aromatic alcohol pretreated with TRPV-1 antagonist)/Maximum RFU of aromatic alcohol).
(§3) Capsazepine and AMG9810 were tested for activity as TRPV-1 antagonists using the Calcium Flux Test using two different concentrations of phenoxyethanol in DMSO. They were also tested using the Calcium Flux Test in which phenoxyethanol was replaced with capsaicin. […]

[2] = molecular target: T1, human vanilloid receptor-1 (TRPV-1); assay: Calcium Flux Test, phenoxyethanol replaced with capsaicin (capsaicin-induced calcium flux)
Protocol: as §1, §2, §3

[3] = molecular target: T1, human vanilloid receptor-1 (TRPV-1); assay: Calcium Flux Test, activity as TRPV-1 agonist; set-up: key: **: Statistically significant; n/s: Not statistically significant
Protocol: as §1
(§4) Phenoxyethanol was tested at a series of concentrations in DMSO for activity as a TRPV-1 agonist according to the Calcium Flux Test described above. Capsaicin was used as a positive control.
(§5) Maximum RFU values for treatment with phenoxyethanol or capsaisin were compared to the Maximum RFU for a DMSO vehicle alone. Concentrations of phenoxyethanol and capsaicin are reported in milimolar (mM) and nanomolar (nM), respectively.
(§6) Benzyl alcohol and sodium bicarbonate were tested using the Calcium Flux Test.
(§7) Benzyl alcohol and phenethyl alcohol were tested at a series of concentrations in DMSO for activity as a TRPV-1 agonist as described in Example 1. Concentrations of benzyl alcohol and phenethyl alcohol are reported in units of % w/v.

[4] = molecular target: T1, human vanilloid receptor-1 (TRPV-1); assay: Calcium Flux Test, activity as TRPV-1 agonist
Protocol: as §1, §4, §5, §6, §7

[5] = AMG9810 0.6104 nM, phenoxyethanol 2 mM
[6] = AMG9810 2 nM, phenoxyethanol 2 mM
[7] = AMG9810 10 nM, phenoxyethanol 2 mM
[8] = AMG9810 39 nM, phenoxyethanol 2 mM
[9] = AMG9810 39 nM, phenoxyethanol 3 mM
[10] = AMG9810 156 nM, phenoxyethanol 2 mM
[11] = AMG9810 156 nM, phenoxyethanol 3 mM
[12] = AMG9810 625 nM, phenoxyethanol 2 mM
[13] = AMG9810 625 nM, phenoxyethanol 3 mM
[14] = AMG9810 2500 nM, phenoxyethanol 2 mM
[15] = AMG9810 2500 nM, phenoxyethanol 3 mM
[16] = AMG9810 10000 nM, phenoxyethanol 2 mM
[17] = AMG9810 10000 nM, phenoxyethanol 3 mM
[18] = AMG9810 625 nM, capsaicin 100 nM
[19] = AMG9810 625 nM, capsaicin 300 nM
[20] = AMG9810 2500 nM, capsaicin 100 nM
[21] = AMG9810 2500 nM, capsaicin 300 nM
[22] = AMG9810 10000 nM, capsaicin 100 nM
[23] = AMG9810 10000 nM, capsaicin 300 nM

- Maximum RFU (mean ± SD) ([1]; AMG9810 0.1526 nM, phenoxyethanol 2 mM): 261.54 ± 114.76 RFU
- Maximum RFU (mean ± SD) ([1]; AMG9810 0.1526 nM, phenoxyethanol 3 mM): 412.30 ± 110.68 RFU
- Maximum RFU (mean ± SD) [1, 5]: 189.72 ± 34.94 RFU
- inhibition at 0.0006104 µM [1, 5]: 12.3%
- Maximum RFU (mean ± SD) ([1]; AMG9810 0.6104 nM, phenoxyethanol 3 mM): 405.29 ± 152.93 RFU
- Maximum RFU (mean ± SD) [1, 6]: 202.96 ± 18.01 RFU
- inhibition at 0.002 µM [1, 6]: 6.2%
- Maximum RFU (mean ± SD) ([1]; AMG9810 2 nM, phenoxyethanol 3 mM): 265.02 ± 52.11 RFU
- Maximum RFU (mean ± SD) [1, 7]: 110.26 ± 27.80 RFU
- inhibition at 0.01 µM [1, 7]: 49%
- Maximum RFU (mean ± SD) ([1]; AMG9810 10 nM, phenoxyethanol 3 mM): 315.60 ± 125.77 RFU
- Maximum RFU (mean ± SD) [1, 8]: 165.37 ± 162.35 RFU
- inhibition at 0.039 µM [1, 8]: 23.6%
- Maximum RFU (mean ± SD) [1, 9]: 98.74 ± 23.34 RFU
- inhibition at 0.039 µM [1, 9]: 56%
- Maximum RFU (mean ± SD) [1, 10]: 58.21 ± 5.97 RFU
- inhibition at 0.156 µM [1, 10]: 73.1%
- Maximum RFU (mean ± SD) [1, 11]: 75.59 ± 10.97 RFU
- inhibition at 0.156 µM [1, 11]: 66.3%
- Maximum RFU (mean ± SD) [1, 12]: 55.53 ± 8.48 RFU
- inhibition at 0.625 µM [1, 12]: 74.3%
- Maximum RFU (mean ± SD) [1, 13]: 58.16 ± 1.97 RFU
- inhibition at 0.625 µM [1, 13]: 74.1%
- Maximum RFU (mean ± SD) [1, 14]: 58.00 ± 5.34 RFU
- inhibition at 2.5 µM [1, 14]: 73.2%
- Maximum RFU (mean ± SD) [1, 15]: 68.59 ± 4.15 RFU
- inhibition at 2.5 µM [1, 15]: 69.4%
- Maximum RFU (mean ± SD) [1, 16]: 59.78 ± 3.84 RFU
- inhibition at 10 µM [1, 16]: 72.4%
- Maximum RFU (mean ± SD) [1, 17]: 65.74 ± 4.33 RFU
- inhibition at 10 µM [1, 17]: 70.7%
- Maximum RFU (mean ± SD) ([2]; AMG9810 39 nM, capsaicin 100 nM): 942.69 ± 88.43 RFU
- Maximum RFU (mean ± SD) ([2]; AMG9810 39 nM, capsaicin 300 nM): 975.35 ± 32.01 RFU
- Maximum RFU (mean ± SD) ([2]; AMG9810 156 nM, capsaicin 100 nM): 916.79 ± 31.53 RFU
- Maximum RFU (mean ± SD) ([2]; AMG9810 156 nM, capsaicin 300 nM): 958.56 ± 16.66 RFU
- Maximum RFU (mean ± SD) [2, 18]: 735.36 ± 114.75 RFU
- inhibition at 0.625 µM [2, 18]: 13.4%
- Maximum RFU (mean ± SD) [2, 19]: 747.36 ± 77.35 RFU
- inhibition at 0.625 µM [2, 19]: 14.6%
- Maximum RFU (mean ± SD) [2, 20]: 85.41 ± 20.60 RFU
- inhibition at 2.5 µM [2, 20]: 90%
- Maximum RFU (mean ± SD) [2, 21]: 78.33 ± 46.56 RFU
- inhibition at 2.5 µM [2, 21]: 91%
- Maximum RFU (mean ± SD) [2, 22]: 47.00 ± 11.29 RFU
- inhibition at 10 µM [2, 22]: 94.5%
- Maximum RFU (mean ± SD) [2, 23]: 44.15 ± 2.20 RFU
- inhibition at 10 µM [2, 23]: 95%
SMILES: CC(C)(C)c1ccc(/C=C/C(=O)Nc2ccc3c(c2)OCCO3)cc1 [AMG9810, (E)-3-(4-t-butylphenyl)-N-(2,3-dihydrobenzo[b][1,4]dioxin-6-yl)acrylamide]

- P < 0.05 Compared to Vehicle ([3]; benzyl alcohol 0.25 mM): n/s
- P < 0.05 Compared to Vehicle ([3]; benzyl alcohol 0.5 mM): n/s
- P < 0.05 Compared to Vehicle ([3]; benzyl alcohol 1 mM): n/s
- P < 0.05 Compared to Vehicle ([3]; benzyl alcohol 2 mM): n/s
- P < 0.05 Compared to Vehicle ([3]; benzyl alcohol 4 mM): **
- intracellular calcium flux in TRPV-1-transfected HEK cells (result in words) [4]: dose dependent increases
- Maximum RFU (mean ± SD) ([4]; benzyl alcohol 0.25 mM (Example 7)): 64.45 ± 28.15 RFU
- Maximum RFU (mean ± SD) ([4]; benzyl alcohol 0.5 mM (Example 7)): 104.45 ± 12.50 RFU
- Maximum RFU (mean ± SD) ([4]; benzyl alcohol 1 mM (Example 7)): 113.51 ± 4.70 RFU
- Maximum RFU (mean ± SD) ([4]; benzyl alcohol 2 mM (Example 7)): 135.45 ± 12.15 RFU
- Maximum RFU (mean ± SD) ([4]; benzyl alcohol 4 mM (Example 7)): 362.51 ± 126.09 RFU
SMILES: OCc1ccccc1 [Benzyl Alcohol, benzyl alcohol]
- Maximum RFU ([4]; benzyl alcohol 0.000161 % w/v alone (no antagonist)): 10.95 ± 0.23 RFU and 8.44 RFU and 16.17 ± 1.16 RFU
- Maximum RFU ([4]; benzyl alcohol 0.004357 % w/v alone (no antagonist)): 43.91 ± 3.74 RFU and 31.54 RFU and 55.75 ± 2.68 RFU
- Maximum RFU ([4]; benzyl alcohol 0.013072 % w/v alone (no antagonist)): 160.8 ± 12.61 RFU and 93.35 RFU and 124.54 ± 13.18 RFU
- Maximum RFU ([4]; benzyl alcohol 0.04 % w/v alone (no antagonist)): 608.23 ± 10.21 RFU and 410.41 RFU and 424.01 ± 2.92 RFU
- Maximum RFU ([4]; benzyl alcohol 6.64E−07 % w/v alone (no antagonist)): 9.37 ± 1.66 RFU and 7.66 RFU and 13.85 ± 1.83 RFU
- activity for TRPV-1 activation (result in words) ([4]; doses of 2 mM and below, Example 7): did not show statistically significant activity

- Maximum RFU (mean ± SD) ([1]; compound 25 μM, phenoxyethanol 2 mM): 158.25 ± 0.69 RFU
- Maximum RFU (mean ± SD) ([1]; compound 25 μM, phenoxyethanol 3 mM): 312.62 ± 67.77 RFU
- Maximum RFU (mean ± SD) ([1]; compound 100 μM, phenoxyethanol 2 mM): 141.61 ± 33.91 RFU
- Maximum RFU (mean ± SD) ([1]; compound 100 μM, phenoxyethanol 3 mM): 195.47 ± 53.34 RFU
- Maximum RFU (mean ± SD) ([2]; compound 100 μM, capsaicin 300 nM): 825.37 ± 9.95 RFU
SMILES: CN(C)CCOC(c1ccccc1)c1ccccc1 [Diphenhydramine, diphenhydramine]
- reducing phenoxyethanol-induced calcium flux (result in words) ([1]; TRPV-1-expressing HEK293 cells): none of hydrocortisone, diphenhydramine or lidocaine were effective
